pIC50: −log10 of the molar value.
Target: T1, Kv1.3 potassium channel (Homo sapiens, UniProt P22001)
T1 construct: expressed in transfected cells
Test: Kv1.3 potassium channel blocker activity, automated whole-cell patch clamp (Patchliner)
Type: cell-based
Details: CHO-K1 cells stably expressing Kv1.3; whole-cell current, Hill fit
Method: Example 9. Evaluation of Kv1.3 Potassium Channel Blocker Activities
This assay is used to evaluate the disclosed compounds' activities as Kv1.3 potassium channel blockers.
CHO-K1 cells stably expressing Kv1.3 were grown in DMEM containing 10% heat-inactivated FBS, 1 mM Sodium Pyruvate, 2 mM L-Glutamine and G418 (500 μg/ml). Cells were grown in culture flasks at 37° C. in a […] incubator.
(§1) The cells were bathed in an extracellular solution containing 140 mM NaCl, 4 mM KCl, 2 mM CaCl2, 1 mM MgCl2, 5 mM Glucose, 10 mM HEPES; pH adjusted to 7.4 with NaOH; 295-305 mOsm. The internal solution contained 50 mM KCl, 10 mM NaCl, 60 mM KF, 20 mM EGTA, 10 mM HEPES; pH adjusted to 7.2 with KOH; 285 mOsm. All compounds were dissolved in DMSO at 30 mM. Compound stock solutions were freshly diluted with external solution to concentrations of 30 nM, 100 nM, 300 nM, 1 μM, 3 μM, 10 μM, 30 μM and 100 μM. The highest content of DMSO (0.3%) was present in 100 μM.
The currents were evoked by applying 100 ms depolarizing pulses from −90 mV (holding potential) to +40 mV were applied with 0.1 Hz frequency. Control (compound-free) and compound pulse trains for each compound concentration applied contained 20 pulses. 10-second breaks were used between pulse trains (see Table A below).
Whole-cell current recordings and compound application were enabled by means of an automated patch clamp platform Patchliner (Nanion Technologies GmbH). EPC 10 patch clamp amplifier (HEKA Elektronik Dr. Schulze GmbH) along with Patchmaster software (HEKA Elektronik Dr. Schulze GmbH) was used for data acquisition. Data were sampled at 10 kHz without filtering. Passive leak currents were subtracted online using a P/4 procedure (HEKA Elektronik Dr. Schulze GmbH). Increasing compound concentrations were applied consecutively to the same cell without washouts in between. Total compound incubation time before the next pulse train was not longer than 10 seconds. Peak current inhibition was observed during compound equilibration.
(§2) AUC and peak values were obtained with Patchmaster (HEKA Elektronik Dr. Schulze GmbH). To determine IC50, the last single pulse in the pulse train corresponding to a given compound concentration was used. Obtained AUC and peak values in the presence of compound were normalized to control values in the absence of compound. Using Origin (OridinLab), IC50 was derived from data fit to Hill equation: Icompound/Icontrol=(100−A)/(1+([compound]/IC50)nH)+A, where IC50 value is the concentration at which current inhibition is half-maximal, [compound] is the applied compound concentration, A is the fraction of current that is not blocked and nH is the Hill coefficient.

T1 sequence (P22001 whole entry): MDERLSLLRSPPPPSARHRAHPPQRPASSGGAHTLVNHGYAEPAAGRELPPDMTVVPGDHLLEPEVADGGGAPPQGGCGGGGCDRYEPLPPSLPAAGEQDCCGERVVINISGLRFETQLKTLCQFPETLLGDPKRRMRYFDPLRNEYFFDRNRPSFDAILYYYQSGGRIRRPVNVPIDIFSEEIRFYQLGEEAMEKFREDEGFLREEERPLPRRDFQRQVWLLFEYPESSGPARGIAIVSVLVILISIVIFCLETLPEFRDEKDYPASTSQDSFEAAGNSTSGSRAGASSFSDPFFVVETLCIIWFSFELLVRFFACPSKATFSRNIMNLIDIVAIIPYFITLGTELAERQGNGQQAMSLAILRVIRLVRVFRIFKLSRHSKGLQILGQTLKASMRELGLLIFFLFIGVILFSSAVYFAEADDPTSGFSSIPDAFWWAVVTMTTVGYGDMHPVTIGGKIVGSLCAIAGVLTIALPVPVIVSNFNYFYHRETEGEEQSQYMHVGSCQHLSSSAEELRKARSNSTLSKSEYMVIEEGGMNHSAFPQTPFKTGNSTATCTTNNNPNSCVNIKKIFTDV

SMILES | pIC50
O=C1[C@@H]2C[C@H](c3c(O)ccc(Cl)c3Cl)CCN2C(=O)CN1CCO (relative stereo) [Compound 7, (8R,9aS)-rel-8-(2,3-dichloro-6-hydroxyphenyl)-2-(2-hydroxyethyl)hexahydro-4H-pyrido[1,2-a]pyrazine-1,4(6H)-dione] | > 6.00
O=C1[C@H]2C[C@H](c3c(O)ccc(Cl)c3Cl)CCN2C(=O)CN1CCO (relative stereo) [Compound 18, (8R,9aR)-rel-8-(2,3-dichloro-6-hydroxyphenyl)-2-(2-hydroxyethyl)-hexahydropyrido[1,2-a]pyrazine-1,4-dione] | > 6.00
CC(C)[C@@H](O)[C@@H]1NC(=O)[C@H]2C[C@@H](c3c(O)ccc(Cl)c3Cl)CCN2C1=O [Compound 39, (3S,8S,9aR)-8-(2,3-dichloro-6-hydroxyphenyl)-3-[(1R)-1-hydroxy-2-methylpropyl]-hexahydro-2H-pyrido[1,2-a]pyrazine-1,4-dione] | > 5.00
O=C1[C@@H]2C[C@H](c3c(O)ccc(Cl)c3Cl)CCN2C(=O)[C@H]2CC(O)CCN12 (stereo partly drawn) [Compound 40, (2R,6aR,12aS)-2-(2,3-dichloro-6-hydroxyphenyl)-8-hydroxyoctahydro-dipyrido[1,2-a:1′,2′-d]pyrazine-6,12(2H,6aH)-dione] | > 6.00
CC(C)[C@@H](O)[C@@H]1NC(=O)[C@@H]2C[C@H](c3c(O)ccc(Cl)c3Cl)CCN2C1=O [Compound 42, (3S,8R,9aS)-8-(2,3-dichloro-6-hydroxyphenyl)-3-[(1R)-1-hydroxy-2-methylpropyl]-hexahydro-2H-pyrido[1,2-a]pyrazine-1,4-dione] | > 6.00
O=C1[C@@H]2C[C@@H](O)CN2C(=O)[C@@H]2C[C@H](c3c(O)ccc(Cl)c3Cl)CCN12 [Compound 43, (2R,5aS,7R,11aS)-7-(2,3-dichloro-6-hydroxyphenyl)-2-hydroxyhexahydro-1H-pyrido[1,2-a]pyrrolo[1,2-d]pyrazine-5,11(5aH,11aH)-dione] | > 5.00
O=C1N[C@@H](CO)C(=O)N2CC[C@H](c3c(O)ccc(Cl)c3Cl)C[C@H]12 [Compound 46, (3S,8S,9aR)-8-(2,3-dichloro-6-hydroxyphenyl)-3-(hydroxymethyl)hexahydro-4H-pyrido[1,2-a]pyrazine-1,4(6H)-dione] | > 5.00
CC1(C)NC(=O)C2CC(c3c(O)ccc(Cl)c3Cl)CCN2C1=O (stereo not shown) [Compound 47, 8-(2,3-dichloro-6-hydroxyphenyl)-3,3-dimethyl-octahydro-1H-pyrido[1,2-a]pyrazine-1,4-dione] | > 5.00
CC(C)[C@H]1NC(=O)[C@H]2C[C@@H](c3c(O)ccc(Cl)c3Cl)CCN2C1=O [Compound 48, (8S,9aR)-8-(2,3-dichloro-6-hydroxyphenyl)-3-(3R)-isopropyl-hexahydro-2H-pyrido[1,2-a]pyrazine-1,4-dione] | > 5.00
CC[C@H]1NC(=O)[C@@H]2C[C@H](c3c(O)ccc(Cl)c3Cl)CCN2C1=O [Compound 51, (8R,9aS)-8-(2,3-dichloro-6-hydroxyphenyl)-3-(3R)-ethyl-hexahydro-2H-pyrido[1,2-a]pyrazine-1,4-dione] | > 4.52
CC(C)[C@H]1NC(=O)[C@@H]2C[C@H](c3c(O)ccc(Cl)c3Cl)CCN2C1=O [Compound 54, (8R,9aS)-8-(2,3-dichloro-6-hydroxyphenyl)-3-(3R)-isopropyl-hexahydro-2H-pyrido[1,2-a]pyrazine-1,4-dione] | > 6.00
O=C1NCC(=O)N2CC[C@H](c3c(O)ccc(Cl)c3Cl)C[C@H]12 [Compound 56, (8S,9aR)-8-(2,3-dichloro-6-hydroxyphenyl)hexahydro-4H-pyrido[1,2-a]pyrazine-1,4(6H)-dione] | > 5.00
O=C1N[C@H](CO)C(=O)N2CC[C@H](c3c(O)ccc(Cl)c3Cl)C[C@H]12 [Compound 57, (3R,8S,9aR)-8-(2,3-dichloro-6-hydroxyphenyl)-3-(hydroxymethyl)hexahydro-4H-pyrido[1,2-a]pyrazine-1,4(6H)-dione] | > 5.00
O=C1[C@H]2C[C@@H](O)CN2C(=O)[C@H]2C[C@@H](c3c(O)ccc(Cl)c3Cl)CCN12 [Compound 59, (2R,5aR,7S,11aR)-7-(2,3-dichloro-6-hydroxyphenyl)-2-hydroxyhexahydro-1H-pyrido[1,2-a]pyrrolo[1,2-d]pyrazine-5,11(5aH,11aH)-dione] | > 5.00
CC(C)[C@H](O)[C@H]1NC(=O)[C@H]2C[C@@H](c3c(O)ccc(Cl)c3Cl)CCN2C1=O [Compound 61, (3R,8S,9aR)-8-(2,3-dichloro-6-hydroxyphenyl)-3-[(1S)-1-hydroxy-2-methylpropyl]-hexahydro-2H-pyrido[1,2-a]pyrazine-1,4-dione] | > 5.00
C[C@H]1NC(=O)[C@H]2C[C@@H](c3c(O)ccc(Cl)c3Cl)CCN2C1=O [Compound 62, (3R,8S,9aR)-8-(2,3-dichloro-6-hydroxyphenyl)-3-methyl-hexahydro-2H-pyrido[1,2-a]pyrazine-1,4-dione] | > 5.00
O=C1N[C@H](CCO)C(=O)N2CC[C@H](c3c(O)ccc(Cl)c3Cl)C[C@H]12 [Compound 63, (3R,8S,9aR)-8-(2,3-dichloro-6-hydroxyphenyl)-3-(2-hydroxyethyl)-hexahydro-2H-pyrido[1,2-a]pyrazine-1,4-dione] | > 4.52
O=C1N[C@H](CO)C(=O)N2CC[C@H](c3c(O)cc(Cl)c(Cl)c3Cl)C[C@H]12 [Compound 66, (8S,9aR)3-((3R)-hydroxymethyl)-8-(2,3,4-trichloro-6-hydroxyphenyl)-hexahydro-2H-pyrido[1,2-a]pyrazine-1,4-dione] | > 5.00
C[C@H](O)[C@H]1NC(=O)[C@H]2C[C@@H](c3c(O)ccc(Cl)c3Cl)CCN2C1=O [Compound 67, (3R,8S,9aR)-8-(2,3-dichloro-6-hydroxyphenyl)-3-[(1S)-1-hydroxyethyl]-hexahydro-2H-pyrido[1,2-a]pyrazine-1,4-dione] | > 5.00
O=C1N[C@H](CCO)C(=O)N2CC[C@@H](c3c(O)ccc(Cl)c3Cl)C[C@@H]12 [Compound 70, (3R,8R,9aS)-8-(2,3-dichloro-6-hydroxyphenyl)-3-(2-hydroxyethyl)-hexahydro-2H-pyrido[1,2-a]pyrazine-1,4-dione] | > 6.00

Target: T2, hERG channel (Homo sapiens, UniProt Q12809)
T2 construct: expressed in transfected cells
T2 sequence (Q12809 whole entry): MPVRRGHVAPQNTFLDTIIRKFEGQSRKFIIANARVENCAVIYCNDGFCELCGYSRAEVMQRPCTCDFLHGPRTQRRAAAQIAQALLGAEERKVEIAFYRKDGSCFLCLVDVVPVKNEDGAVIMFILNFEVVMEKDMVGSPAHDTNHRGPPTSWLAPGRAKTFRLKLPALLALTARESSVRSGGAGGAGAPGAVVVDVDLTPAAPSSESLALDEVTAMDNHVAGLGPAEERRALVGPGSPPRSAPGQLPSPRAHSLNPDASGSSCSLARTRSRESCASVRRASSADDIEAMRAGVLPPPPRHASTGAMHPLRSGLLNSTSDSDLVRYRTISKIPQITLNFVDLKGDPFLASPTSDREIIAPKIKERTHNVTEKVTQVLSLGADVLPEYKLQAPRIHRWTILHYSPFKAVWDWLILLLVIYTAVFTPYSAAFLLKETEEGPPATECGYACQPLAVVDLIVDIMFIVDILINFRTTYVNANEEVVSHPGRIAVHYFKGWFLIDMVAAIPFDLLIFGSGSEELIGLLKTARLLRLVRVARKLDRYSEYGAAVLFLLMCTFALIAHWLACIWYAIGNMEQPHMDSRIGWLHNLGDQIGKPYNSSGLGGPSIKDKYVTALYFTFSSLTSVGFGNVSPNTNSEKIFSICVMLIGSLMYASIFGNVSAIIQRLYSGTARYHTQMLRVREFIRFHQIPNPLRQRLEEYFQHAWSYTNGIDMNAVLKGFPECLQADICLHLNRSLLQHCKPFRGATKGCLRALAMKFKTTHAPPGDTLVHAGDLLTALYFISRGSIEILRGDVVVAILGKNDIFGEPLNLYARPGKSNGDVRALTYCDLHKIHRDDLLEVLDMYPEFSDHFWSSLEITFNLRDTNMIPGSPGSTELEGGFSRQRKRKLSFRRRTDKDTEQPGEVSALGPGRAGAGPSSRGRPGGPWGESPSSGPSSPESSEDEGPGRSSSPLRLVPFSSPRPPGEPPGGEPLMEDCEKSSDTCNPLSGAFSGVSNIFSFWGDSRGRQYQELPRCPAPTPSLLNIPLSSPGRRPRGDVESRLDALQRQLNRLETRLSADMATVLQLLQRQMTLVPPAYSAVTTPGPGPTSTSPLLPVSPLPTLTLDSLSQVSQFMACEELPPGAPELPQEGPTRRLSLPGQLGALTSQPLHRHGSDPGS
Test: hERG electrophysiology, automated whole-cell patch clamp (Patchliner)
Type: cell-based
Details: CHO-K1 cells stably expressing hERG; whole-cell current, Hill fit
Method: Example 10. Evaluation of hERG Activities
This assay is used to evaluate the disclosed compounds' inhibition activities against the hERG channel.
CHO-K1 cells stably expressing hERG were grown in Ham's F-12 Medium with Glutamine containing 10% heat-inactivated FBS, 1% Penicillin/Streptomycin, Hygromycin (100 μg/ml) and G418 (100 μg/ml). Cells were grown in culture flasks at 37° C. in a 5% CO2-humidified incubator.
as §1, with “CaCl2),” for “CaCl2,”
The voltage protocol (see Table B) was designed to simulate voltage changes during a cardiac action potential with a 300 ms depolarization to +20 mV (analogous to the plateau phase of the cardiac action potential), a repolarization for 300 ms to −50 mV (inducing a tail current) and a final step to the holding potential of −80 mV. The pulse frequency was 0.3 Hz. Control (compound-free) and compound pulse trains for each compound concentration applied contained 70 pulses.
Whole-cell current recordings and compound application were enabled by means of an automated patch clamp platform Patchliner (Nanion). EPC 10 patch clamp amplifier (HEKA) along with Patchmaster software (HEKA Elektronik Dr. Schulze GmbH) was used for data acquisition. Data were sampled at 10 kHz without filtering. Increasing compound concentrations were applied consecutively to the same cell without washouts in between.
as §2, with “PEAK” for “peak”, “IC50” for “IC50,”, “IC50” for “IC50 value”

SMILES | pIC50
O=C1[C@@H]2C[C@H](c3c(O)ccc(Cl)c3Cl)CCN2C(=O)CN1CCO (relative stereo) [Compound 7, (8R,9aS)-rel-8-(2,3-dichloro-6-hydroxyphenyl)-2-(2-hydroxyethyl)hexahydro-4H-pyrido[1,2-a]pyrazine-1,4(6H)-dione] | < 4.52
O=C1[C@H]2C[C@H](c3c(O)ccc(Cl)c3Cl)CCN2C(=O)CN1CCO (relative stereo) [Compound 18, (8R,9aR)-rel-8-(2,3-dichloro-6-hydroxyphenyl)-2-(2-hydroxyethyl)-hexahydropyrido[1,2-a]pyrazine-1,4-dione] | < 4.52
